For assay [1], the target named is T1, ABHD6 (Mus musculus, UniProt Q8R2Y0).
T1 sequence (Q8R2Y0 1-336): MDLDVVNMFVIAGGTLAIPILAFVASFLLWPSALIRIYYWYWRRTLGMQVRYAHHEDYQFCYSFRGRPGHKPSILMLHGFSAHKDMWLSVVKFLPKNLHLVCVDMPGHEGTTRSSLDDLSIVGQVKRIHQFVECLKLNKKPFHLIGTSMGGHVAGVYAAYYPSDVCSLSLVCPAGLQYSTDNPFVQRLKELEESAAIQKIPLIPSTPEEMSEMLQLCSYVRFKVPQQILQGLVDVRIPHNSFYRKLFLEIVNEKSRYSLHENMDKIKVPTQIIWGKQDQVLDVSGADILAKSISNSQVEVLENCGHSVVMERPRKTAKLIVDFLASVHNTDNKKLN
As to the kind of experiment: In vitro competitive activity-based protein profiling (FP-Rh), mouse ABHD6. The settings on record: 30 min preincubation at 37° C. The arrangement: from tissue; host or cells: mouse brain membrane fraction. In kind it is biochemical. The procedure: (§1) In Vitro Competitive Activity-Based Protein Profiling.
(§2) Proteomes (mouse brain membrane fraction or cell lysates) (50 μL, 1.0 mg/ml total protein concentration) were preincubated with varying concentrations of inhibitors at 37° C. After 30 min, FP-Rh (1.0 μL, 50 μM in DMSO) was added and the mixture was incubated for another 30 min at 37° C. Reactions were quenched with SDS loading buffer (50 μL—4×) and run on SDS-PAGE.

In assay [2] the target is T2, MAGL (Mus musculus, UniProt O35678).
T2 sequence (O35678 1-303): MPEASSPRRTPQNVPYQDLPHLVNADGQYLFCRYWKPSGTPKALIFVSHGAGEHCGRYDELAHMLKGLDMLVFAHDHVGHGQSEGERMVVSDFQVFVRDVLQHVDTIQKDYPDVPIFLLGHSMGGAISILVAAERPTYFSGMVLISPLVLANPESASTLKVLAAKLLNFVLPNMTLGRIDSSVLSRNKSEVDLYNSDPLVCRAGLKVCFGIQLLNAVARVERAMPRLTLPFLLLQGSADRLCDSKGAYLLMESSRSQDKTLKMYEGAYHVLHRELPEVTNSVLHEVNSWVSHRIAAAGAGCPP
In words: Mouse brain MAGL inhibition in proteomes from inhibitor treated mice (oral gavage). In kind it is in vivo. On the set-up: from tissue; host or cells: mouse brain membrane fraction. The settings on record: p.o., C57Bl/6J mice, brain proteome 4 h following administration. The procedure:
as §2
Preparation of Mouse Brain Proteomes from Inhibitor Treated Mice.
Inhibitors were administered to wild-type C57B1/6J by oral gavage in a vehicle of polyethylene glycol.

Assay [3] deals with T3, FAAH (Mus musculus, UniProt O08914).
T3 sequence (O08914 1-579): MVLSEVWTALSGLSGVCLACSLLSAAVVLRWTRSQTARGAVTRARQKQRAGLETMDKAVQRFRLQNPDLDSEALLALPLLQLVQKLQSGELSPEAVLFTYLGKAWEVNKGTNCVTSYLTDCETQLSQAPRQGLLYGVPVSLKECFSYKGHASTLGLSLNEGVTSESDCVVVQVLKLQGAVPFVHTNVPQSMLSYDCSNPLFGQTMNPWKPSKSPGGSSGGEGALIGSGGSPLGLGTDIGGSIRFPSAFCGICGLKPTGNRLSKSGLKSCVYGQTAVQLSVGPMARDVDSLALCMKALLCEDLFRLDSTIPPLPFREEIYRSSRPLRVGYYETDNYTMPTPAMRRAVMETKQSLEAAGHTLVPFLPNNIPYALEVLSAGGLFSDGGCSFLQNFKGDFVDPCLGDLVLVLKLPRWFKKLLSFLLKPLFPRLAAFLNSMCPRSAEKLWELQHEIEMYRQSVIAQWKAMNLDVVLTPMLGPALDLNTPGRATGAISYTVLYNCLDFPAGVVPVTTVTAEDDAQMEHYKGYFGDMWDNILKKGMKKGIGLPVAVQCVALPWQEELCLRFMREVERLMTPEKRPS
In words: In vitro competitive activity-based protein profiling (FP-Rh), mouse FAAH. In kind it is biochemical. On the set-up: from tissue; host or cells: mouse brain membrane fraction. The settings on record: 30 min preincubation at 37° C. How it is done:
as §1, §2

Assay [4] addresses T2, MAGL. In words: In vitro competitive activity-based protein profiling (FP-Rh), mouse MAGL. In kind it is biochemical. On the set-up: from tissue; host or cells: mouse brain membrane fraction. The settings on record: 30 min preincubation at 37° C. The procedure:
as §1, §2

Assay [5] concerns the target T4, hMAGL (Homo sapiens, UniProt Q99685).
T4 construct: expressed in transfected cells; host or cells: HEK293T
T4 sequence (Q99685 1-303): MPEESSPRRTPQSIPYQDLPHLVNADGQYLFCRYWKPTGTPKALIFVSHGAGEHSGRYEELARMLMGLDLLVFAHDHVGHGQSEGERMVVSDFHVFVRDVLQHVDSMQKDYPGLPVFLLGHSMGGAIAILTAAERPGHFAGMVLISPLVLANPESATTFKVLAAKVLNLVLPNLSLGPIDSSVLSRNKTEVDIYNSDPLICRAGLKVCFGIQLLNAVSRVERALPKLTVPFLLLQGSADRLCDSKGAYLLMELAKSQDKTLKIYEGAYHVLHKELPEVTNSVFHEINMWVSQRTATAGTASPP
As to the kind of experiment: Competitive ABPP with human MAGL recombinantly expressed in HEK293T cells. In kind it is biochemical. Conditions: Table 1; hMAGL-HEK293T cell lysates. The procedure: as §2
Recombinant Expression of Human MAGL in HEK293T Cells.
Cell lysates were diluted with mock proteomes for use in competitive ABPP experiments.

Assay [6] deals with T3, FAAH. As to the kind of experiment: In vitro competitive ABPP, % inhibition at fixed concentration, FAAH. In kind it is biochemical. On the set-up: from tissue. The gist of the method:
(§3)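 Mouse brain membrane proteome or cell lysate at 1.0 mg/ml was preincubated with inhibitor for 30 min at 37° C, then labelled with FP-Rh for another 30 min. After SDS-PAGE, activity was quantified from the fluorescent intensity of the MAGL, ABHD6 and FAAH bands.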

Assay [7] addresses T2, MAGL. In words: In vitro competitive ABPP, % inhibition at fixed concentration, MAGL. In kind it is biochemical. On the set-up: from tissue. In outline: as §3
Assay [8] has as its target T1, ABHD6. As to the kind of experiment: In vitro competitive ABPP, % inhibition at fixed concentration, ABHD6. In kind it is biochemical. On the set-up: from tissue. In outline: as §3

The text below walks through data of US9567302B2, “Carbamate compounds and of making and using same” (Abide Therapeutics, Inc., priority 2012, dated 2017).

The structures appear in SMILES notation.

With `CC1CC(=O)N(OC(=O)N2CCN(C(c3ccc(Cl)cc3)c3ccc(Cl)cc3)CC2)C1=O` (stereo not drawn) [Example 41, 3-Methyl-2,5-dioxopyrrolidin-1-yl 4-(bis(4-chlorophenyl)methyl)piperazine-1-carboxylate], the half-inhibitory concentration (IC50) in assay [1] (Table 1, mouse proteome) was 100 to 1000 nM; in assay [3] (Table 1, mouse proteome), > 10000 nM; in assay [4] (Table 1, mouse proteome), < 100 nM. In assay [2], the inhibition at 20 mg/kg was > 95%.
Turning to `O=C(ON1C(=O)CCC1=O)N1CCN(Cc2ccccc2Oc2ccccc2)CC1` [Example 35, 2,5-Dioxopyrrolidin-1-yl 4-[(2-phenoxyphenyl)methyl]piperazine-1-carboxylate], the IC50 was < 100 nM in assay [1] (Table 1, mouse proteome); < 0.1 µM in assay [5]; 1000 to 10000 nM in assay [3] (Table 1, mouse proteome); < 100 nM in assay [4] (Table 1, mouse proteome).
Regarding `Cc1c(CN2CCN(C(=O)ON3C(=O)CCC3=O)CC2)cccc1N1CCCCC1` [Example 122, 2,5-Dioxopyrrolidin-1-yl 4-(2-methyl-3-(piperidin-1-yl)benzyl)piperazine-1-carboxylate], the IC50 in assay [1] (Table 2, mouse proteome) is 100 to 1000 nM; in assay [3] (Table 2, mouse proteome) it was > 10000 nM; in assay [4] (Table 2, mouse proteome), < 100 nM. The same compound had an inhibition at 5 mg/kg in assay [2] of 100%.
Taken in the same sequence, the figures for `O=C(ON1C(=O)CCC1=O)N1CCN(Cc2ccc(C(F)(F)F)cc2N2CCCC2)CC1` [Example 105, 2,5-Dioxopyrrolidin-1-yl 4-{[2-(pyrrolidin-1-yl)-4-(trifluoromethyl)phenyl]methyl}piperazine-1-carboxylate] were 1000 to 10000 nM, > 10000 nM, < 100 nM and 75%.
Turning to `O=C(ON1C(=O)CCC1=O)N1CCC(CCc2ccc(Cl)cc2)CC1` [Example 8, 2,5-Dioxopyrrolidin-1-yl 4-[2-(4-chlorophenyl)ethyl]piperidine-1-carboxylate], the IC50 in assay [1] (Table 1, mouse proteome) is < 100 nM; in assay [5] it was < 0.1 µM; in assay [3] (Table 1, mouse proteome) it was 100 to 1000 nM; in assay [4] (Table 1, mouse proteome), < 100 nM.
As to `COc1ccc(N2CCN(C(=O)ON3C(=O)CCC3=O)CC2)cc1` [Example 5, 2,5-Dioxopyrrolidin-1-yl 4-(4-methoxyphenyl)piperazine-1-carboxylate], the half-maximal inhibitory concentration (IC50) in assay [1] (Table 1, mouse proteome) is 1000 to 10000 nM; in assay [5] it was 1 to 10 µM; in assay [3] (Table 1, mouse proteome), > 10000 nM; in assay [4] (Table 1, mouse proteome), 1000 to 10000 nM.
Regarding `O=C(ON1C(=O)CNC1=O)N1CCN(C(c2ccc(Cl)cc2)c2ccc(Cl)cc2)CC1` [Example 46, 2,5-Dioxoimidazolidin-1-yl 4-(bis(4-chlorophenyl)methyl)piperazine-1-carboxylate], the IC50 in assay [1] (Table 1, mouse proteome) is 100 to 1000 nM; in assay [3] (Table 1, mouse proteome), > 10000 nM; in assay [4] (Table 1, mouse proteome), < 100 nM. For the same compound, the inhibition at 20 mg/kg in assay [2] was > 95%.
Take `O=C(CN1CCN(C(=O)ON2C(=O)CCC2=O)CC1)Nc1cc(C(F)(F)F)ccc1Cl` [Example 36, 2,5-Dioxopyrrolidin-1-yl 4-(2-((2-chloro-5-(trifluoromethyl)phenyl)amino)-2-oxoethyl)piperazine-1-carboxylate]: the IC50 in assay [1] (Table 1, mouse proteome) was 1000 to 10000 nM; in assay [5], < 0.1 µM; in assay [3] (Table 1, mouse proteome) it was 1000 to 10000 nM; in assay [4] (Table 1, mouse proteome), < 100 nM.
Regarding `O=C(ON1C(=O)CCC1=O)N1CCC(C(O)(c2ccc3c(c2)OCO3)c2ccc3c(c2)OCO3)CC1` [Example 1, 2,5-Dioxopyrrolidin-1-yl 4-(bis(benzo[d][1,3]dioxol-5 yl)(hydroxy)methyl)piperidine-1-carboxylate], the IC50 in assay [1] (Table 1, mouse proteome) is 100 to 1000 nM; in assay [5] it was < 0.1 µM; in assay [3] (Table 1, mouse proteome) it was > 10000 nM; in assay [4] (Table 1, mouse proteome), < 100 nM. Moreover, the inhibition at 20 mg/kg in assay [2] came to 75%.
`O=C(ON1C(=O)CCC1=O)N1CCN(Cc2cccc(Oc3ccccc3)c2)CC1` [Example 7, 2,5-Dioxopyrrolidin-1-yl 4-[(3-phenoxyphenyl)methyl]piperazine-1-carboxylate]: the concentration for half-maximal inhibition (IC50) in assay [1] (Table 1, mouse proteome) was < 100 nM; in assay [5], < 0.1 µM; in assay [3] (Table 1, mouse proteome) it was 1000 to 10000 nM; in assay [4] (Table 1, mouse proteome), < 100 nM.
On to `Cc1nc(-c2cccc(F)c2)ccc1CN1CCN(C(=O)ON2C(=O)CCC2=O)CC1` [Example 185, 2,5-Dioxopyrrolidin-1-yl 4-{[6-(3-fluorophenyl)-2-methylpyridin-3-yl]methyl}piperazine-1-carboxylate], for which the inhibition at 1 µM in assay [6] was < 25%; in assay [7], > 75%; in assay [8], > 75%.
Turning to `O=C(ON1C(=O)CCC1=O)N1CCN(Cc2ccc(Br)cc2Oc2ccccc2)CC1` [Example 37, 2,5-Dioxopyrrolidin-1-yl 4-[(4-bromo-2-phenoxyphenyl)methyl]piperazine-1-carboxylate], the IC50 in assay [1] (Table 1, mouse proteome) was 100 to 1000 nM; in assay [5], < 0.1 µM; in assay [3] (Table 1, mouse proteome), 1000 to 10000 nM; in assay [4] (Table 1, mouse proteome), < 100 nM.
Regarding `Cc1cc(CN2CCN(C(=O)ON3C(=O)CCC3=O)CC2)cc(C(=O)N2CCOCC2)c1` [Example 208, 2,5-Dioxopyrrolidin-1-yl 4-{[3-methyl-5-(morpholine-4-carbonyl)phenyl]methyl}piperazine-1-carboxylate], the inhibition at 1 µM in assay [6], in assay [7] and in assay [8] was < 25% each time.
For the compound `Cc1cc(-c2ccc(CN3CCN(C(=O)ON4C(=O)CCC4=O)CC3)c(F)c2)ccn1` [Example 166, 2,5-Dioxopyrrolidin-1-yl 4-{[2-fluoro-4-(2-methylpyridin-4-yl)phenyl]methyl}piperazine-1-carboxylate], the inhibition at 1 µM in assay [6] was < 25%; in assay [7], 25 to 75%; in assay [8], > 75%.
Consider `Cc1ccccc1-c1ccc(CN2CCN(C(=O)ON3C(=O)CCC3=O)CC2)c(C)n1` [Example 182, 2,5-Dioxopyrrolidin-1-yl 4-{[2-methyl-6-(2-methylphenyl)pyridin-3-yl]methyl}piperazine-1-carboxylate], for which the inhibition at 1 µM is < 25% in assay [6], 25 to 75% in assay [7] and > 75% in assay [8].

As usually defined, the IC50 is the midpoint of a concentration-inhibition curve. By inhibition is commonly meant the drop in the measured response relative to a control, in per cent. A low value points to little suppression.
